The values below come from US20240025910A1, “BRAIN-MIGRATING TUMOR THERAPEUTIC AGENT CONTAINING FUSED PYRIMIDINE COMPOUND AS ACTIVE INGREDIENT” (TAIHO PHARMACEUTICAL CO., LTD., priority 2020, published 2024).

The nature of data set [1]: Evaluation of brain penetration property (Kp, Kp,uu) after single oral dose. In kind it is in vivo. To be noted: BALB/cAJcl-nu/nu; for Kp at 1 h: mouse, ratio of compound concentrations in brain/plasma, mice, 1 hour after administration, Kp of 0.1 or more judged brain penetrable; for Kp uu at 1 h: ratio of unbound compound concentrations in brain/plasma, using mouse plasma and brain protein unbound ratios of Test Example 1, mice, 0.3 or more judged excellent. Here is the method:
Compounds shown in Tables 1 to 4 were added to mouse plasma at a final concentration of 1 μmol/L. The resultant compound-added mouse plasma was added to the donor side of an equilibrium dialysis device (HTDialysis) in which an equilibrium dialysis membrane was set. An equal amount of PBS was added to the receiver side of the device, and after incubation in a 10% CO2 incubator for 6 hours, the compounds on the donor side and the receiver side were detected with the LC-MS/MS. The unbound ratio of each compound to plasma protein was calculated from the ratio of the compound peak area of the receiver side to that of the donor side.
The unbound ratio of each compound to brain protein was calculated in the same manner as above except that: the compound was added to a mouse brain homogenate instead of the mouse plasma; and a dilution ratio was taken into consideration in the calculation of the unbound ratio. In this case, the mouse brain homogenate was obtained by adding a 3-fold amount of PBS to the mouse brain, and then homogenizing the mixture through use of an ultrasonic homogenizer.
The compounds shown in Tables 1 to 4 were dissolved or suspended in 0.5% HPMC, 0.1N hydrochloric acid, and orally administered in a single dose to BALB/cAJcl-nu/nu mice (CLEA Japan, Inc.) untreated, or subcutaneously implanted with TT cells, or subcutaneously implanted with the BaF3/KIF5B-RET_RFP cell line. […] Thus, blood and brain samples were obtained. The obtained blood sample was centrifuged to obtain a plasma sample. A 3-fold amount of water was added to the obtained brain sample, and then the mixture was homogenized through use of an ultrasonic homogenizer to obtain a brain homogenate.
Compound concentrations in the obtained plasma and in the brain homogenate were measured with the LC-MS/MS, and the compound concentration in the brain homogenate was multiplied by a factor of 4 to calculate a compound concentration in the brain. A Kp value was calculated from the ratio of the compound concentrations in the brain/plasma. Unbound compound concentrations in the plasma and in the brain were calculated from the plasma protein unbound ratio and brain protein unbound ratio of each compound determined in Test Example 1, and a Kp,uu value was calculated from the ratio of the unbound compound concentrations in the brain/plasma. A brain penetration property was evaluated on the basis of the calculated Kp value and Kp,uu value (Tables 1 to 4). Specifically, a compound showing a Kp value of 0.1 or more was judged to have a brain penetration property, and a compound showing a Kp,uu value of 0.3 or more was judged to have an excellent brain penetration property (Varadharajan, S., et al. (2015) J Pharm Sci 104, 1197-1206). In Table 4, “N/A” in the column “Kp,uu value” means that the value was unmeasured.

The subject of data set [2] is NIH/3T3_CCDC6-RET cells implanted in the brain. The data set can be described thus: Evaluation of drug efficacy in brain tumor implantation model. To be noted: oral 50 mg/kg/day, twice a day for 16 consecutive days from Day 5; NIH/3T3_CCDC6-RET brain implant, nude mice. The class given is in vivo, nude mice (BALB/cAJcl-nu/nu).
Experimental: Antitumor evaluation was performed in models with tumors implanted in the brain.
The growth inhibitory effect was confirmed by using NIH/3T3 cells (NIH/3T3_CCDC6-RET cells) in which luciferase and CCDC6-RET fusion protein were forced to be expressed for gene transfer. Six-week-old male nude mice (BALB/cAJcl-nu/nu, CLEA Japan, Inc.) were fixed on a brain stereotaxic instrument, and 2.5×10^4 cells per mice were implanted at a site 0.5 mm anteriorly from the bregma, 2 to 2.2 mm to the right and 3.5 mm deep. The day of implantation was defined as Day 0, luciferin (150 mg/kg) was administered intraperitoneally on Day 4, and intensity of luminescence (photons/sec) was measured using an IVIS Imaging System (Lumina II, PerkinElmer).
From the next day (Day 5), compounds were administered twice a day for 16 consecutive days. Each compound was suspended in 0.5% HPMC/0.1N hydrochloric acid and administered orally at 50 mg/kg/day. To confirm tumor growth, intensity of luminescence was measured at intervals of 3 or 4 days by the method described above.
However, since a humane endpoint due to tumor growth was applied to the drug non-administration group (control group), statistical evaluation was performed by Dunnett's test using the measurement value on Day 14.

In general, Kp refers to tissue or fluid exposure divided by exposure in the circulation.

Consider `COCc1ccc(NC(=O)c2c(C#CCN(C)C)n(C3(C)CC3)c3ncnc(N)c23)cc1` [Example 6, 4-amino-6-[3-(dimethylamino)prop-1-yn-1-yl]-N-[4-(methoxymethyl)phenyl]-7-(1-methylcyclopropyl)-7H-pyrrolo[2,3-d]pyrimidine-5-carboxamide], for which, in data set [1], the Kp at 1 h was 0.969 and the Kp uu at 1 h stood at 0.922. `COCc1ccc(NC(=O)c2c(C#Cc3cn(C)nc3C)n(C3(C)CC3)c3ncnc(N)c23)cc1` [Example 1, 4-amino-6-[2-(1,3-dimethyl-1H-pyrazol-4-yl)ethynyl]-N-[4-(methoxymethyl)phenyl]-7-(1-methylcyclopropyl)-7H-pyrrolo[2,3-d]pyrimidine-5-carboxamide]: in data set [1], the Kp at 1 h was found to be 0.425 and the Kp uu at 1 h was determined as 0.425.

On to `COCc1ccc(NC(=O)c2c(C#Cc3ccc(N)nc3)n(C3(C)CC3)c3ncnc(N)c23)cc1` [Example 17, 4-amino-6-[(6-aminopyridin-3-yl)ethynyl]-N-[4-(methoxymethyl)phenyl]-7-(1-methylcyclopropyl)-7H-pyrrolo[2,3-d]pyrimidine-5-carboxamide], for which, in data set [1], the concentration ratio (Kp) at 1 h stood at 0.129 and the Kp uu at 1 h was found to be 0.052.

Regarding `COCc1ccc(NC(=O)c2c(C#Cc3cnn(C)c3)n(C3(C)CC3)c3ncnc(N)c23)cc1` [Example 4, 4-amino-N-[4-(methoxymethyl)phenyl]-6-((1-methyl-1H-pyrazol-4-yl)ethynyl)-7-(1-methylcyclopropyl)-7H-pyrrolo[2,3-d]pyrimidine-5-carboxamide], in data set [1], the Kp at 1 h amounted to 1.44 and the Kp uu at 1 h worked out at 1.2.

`COCc1ccc(NC(=O)c2c(C#CCN3CCCC3)n(C3(C)CC3)c3ncnc(N)c23)cc1` [Example 12, 4-amino-N-[4-(methoxymethyl)phenyl]-7-(1-methylcyclopropyl)-6-(3-(pyrrolidin-1-yl)prop-1-yn-1-yl)-7H-pyrrolo[2,3-d]pyrimidine-5-carboxamide]: in data set [1], the Kp at 1 h was 1.02 and the Kp uu at 1 h came to 1.45.

For the molecule `COCc1ccc(NC(=O)c2c(C#CC3CCN(C)CC3)n(C3(C)CC3)c3ncnc(N)c23)cc1` [Example 3, 4-amino-N-[4-(methoxymethyl)phenyl]-7-(1-methylcyclopropyl)-6-[(1-methylpiperidin-4-yl)ethynyl]-7H-pyrrolo[2,3-d]pyrimidine-5-carboxamide], in data set [1], the Kp at 1 h is 0.772 and the Kp uu at 1 h turned out to be 0.22. On to `COCc1ccc(NC(=O)c2c(C#CCN3CCCCC3)n(C3(C)CC3)c3ncnc(N)c23)cc1` [Example 11, 4-amino-N-[4-(methoxymethyl)phenyl]-7-(1-methylcyclopropyl)-6-(3-(piperidin-1-yl)prop-1-yn-1-yl)-7H-pyrrolo[2,3-d]pyrimidine-5-carboxamide], for which the Kp at 1 h in data set [1] turned out to be 1.36. For `COCc1ccc(NC(=O)c2c(C#CCN3CCOCC3)n(C3(C)CC3)c3ncnc(N)c23)cc1` [Example 2, 4-amino-N-[4-(methoxymethyl)phenyl]-7-(1-methylcyclopropyl)-6-(3-morpholinoprop-1-yn-1-yl)-7H-pyrrolo[2,3-d]pyrimidine-5-carboxamide], in data set [1], the Kp at 1 h was found to be 1.71 and the Kp uu at 1 h was found to be 1.8. In data set [2], the “inhibitory effect on growth of tumors implanted in the brain (intensity of luminescence)” value is on record as “inhibitory effect on the growth of the implanted tumors”. `Cc1cc(NC(=O)c2c(C#Cc3cnn(C)c3)n(C3(C)CC3)c3ncnc(N)c23)[nH]n1` [compound 3, reference compound]: the Kp at 1 h in data set [1] was 0.076. With `CC#Cc1c(C(=O)Nc2ccc(COC)cc2)c2c(N)ncnc2n1C1(C)CC1` [Example 5, 4-amino-N-[4-(methoxymethyl)phenyl]-7-(1-methylcyclopropyl)-6-(prop-1-yn-1-yl)-7H-pyrrolo[2,3-d]pyrimidine-5-carboxamide], in data set [1], the partition ratio (Kp) at 1 h worked out at 1.56 and the Kp uu at 1 h came to 0.681. Taken in the same sequence, the figures for `COCc1ccc(NC(=O)c2c(OC[C@H]3CCCO3)n(C3(C)CC3)c3ncnc(N)c23)cc1` [Example 7, (R)-4-amino-N-[4-(methoxymethyl)phenyl]-7-(1-methylcyclopropyl)-6-((tetrahydrofuran-2-yl)methoxy)-7H-pyrrolo[2,3-d]pyrimidine-5-carboxamide] were 1.63 and 0.608. Regarding `COCc1ccc(NC(=O)c2c(C#CC3CCOCC3)n(C3(C)CC3)c3ncnc(N)c23)cc1` [Example 13, 4-amino-N-[4-(methoxymethyl)phenyl]-7-(1-methylcyclopropyl)-6-((tetrahydro-2H-pyran-4-yl)ethynyl)-7H-pyrrolo[2,3-d]pyrimidine-5-carboxamide], in data set [1], the Kp at 1 h came out at 2.08 and the Kp uu at 1 h came to 0.891. The matching figures for `COCc1ccc(NC(=O)c2c(C#CCN3CCSCC3)n(C3(C)CC3)c3ncnc(N)c23)cc1` [Example 18, 4-amino-N-[4-(methoxymethyl)phenyl]-7-(1-methylcyclopropyl)-6-(3-thiomorpholinoprop-1-yn-1-yl)-7H-pyrrolo[2,3-d]pyrimidine-5-carboxamide]: 0.685 and 0.443. For the molecule `COCc1ccc(NC(=O)c2c(C#CCC(C)(C)O)n(C3(C)CC3)c3ncnc(N)c23)cc1` [Example 14, 4-amino-6-(4-hydroxy-4-methylpent-1-yn-1-yl)-N-[4-(methoxymethyl)phenyl]-7-(1-methylcyclopropyl)-7H-pyrrolo[2,3-d]pyrimidine-5-carboxamide], in data set [1], the Kp at 1 h stood at 0.352 and the Kp uu at 1 h came to 0.242. With `COCc1ccc(NC(=O)c2c(C#CCC3CCOCC3)n(C3(C)CC3)c3ncnc(N)c23)cc1` [Example 15, 4-amino-N-[4-(methoxymethyl)phenyl]-7-(1-methylcyclopropyl)-6-[3-(tetrahydro-2H-pyran-4-yl)prop-1-yn-1-yl]-7H-pyrrolo[2,3-d]pyrimidine-5-carboxamide], in data set [1], the Kp at 1 h worked out at 0.74 and the Kp uu at 1 h amounted to 0.37. In the case of `COCc1ccc(NC(=O)c2c(C#Cc3cncn3C)n(C3(C)CC3)c3ncnc(N)c23)cc1` [Example 10, 4-amino-N-(4-(methoxymethyl)phenyl)-6-((1-methyl-1H-imidazol-5-yl)ethynyl)-7-(1-methylcyclopropyl)-7H-pyrrolo[2,3-d]pyrimidine-5-carboxamide], in data set [1], the concentration ratio (Kp) at 1 h was 0.143 and the Kp uu at 1 h was 0.056.

As for `Cc1cc(NC(=O)c2cn(C(C)(C)C)c3ncnc(N)c23)n[nH]1` [compound 1, reference compound], the concentration ratio (Kp) at 1 h in data set [1] is 0.056.

With `Cc1cc(NC(=O)c2cn(C3(C)CC3)c3ncnc(N)c23)n[nH]1` [compound 2, reference compound], in data set [1], the Kp at 1 h is 0.022 and the Kp uu at 1 h is 0.005.

For the molecule `CCOc1c(C(=O)Nc2ccc(COC)cc2)c2c(N)ncnc2n1C1(C)CC1` [Example 9, 4-amino-6-ethoxy-N-[4-(methoxymethyl)phenyl]-7-(1-methylcyclopropyl)-7H-pyrrolo[2,3-d]pyrimidine-5-carboxamide], in data set [1], the concentration ratio (Kp) at 1 h is 2.12 and the Kp uu at 1 h was determined as 0.914. As for `COCc1ccc(NC(=O)c2c(C#Cc3cccnc3)n(C3(C)CC3)c3ncnc(N)c23)cc1` [Example 16, 4-amino-N-[4-(methoxymethyl)phenyl]-7-(1-methylcyclopropyl)-6-(pyridin-3-ylethynyl)-7H-pyrrolo[2,3-d]pyrimidine-5-carboxamide], in data set [1], the partition ratio (Kp) at 1 h amounted to 1.09 and the Kp uu at 1 h stood at 0.653. As for `COCc1ccc(NC(=O)c2cn(C3(C)CC3)c3ncnc(N)c23)cc1` [Example 8, 4-amino-N-[4-(methoxymethyl)phenyl]-7-(1-methylcyclopropyl)-7H-pyrrolo[2,3-d]pyrimidine-5-carboxamide], in data set [1], the concentration ratio (Kp) at 1 h turned out to be 0.175 and the Kp uu at 1 h turned out to be 0.1.
